Experiments:
Winterweizen = assay: Field test of gametocidal activity (sterilisation of anthers), winter wheat; type: in vivo; conditions: Sorte Mironowskaja 808; V. Periode der Organogenese; 2%ige wäßrige Emulsion; 20 kg/ha
From the text: (§1) Die gametozide Aktivitat der erfindungsgemäßen Sterilisationsmittel war im Feldversuch in verschiedenen bodenklimatischen Zonen mit Teilstücken von 10 m^2 Größe in drei- bis viermaliger Wiederholung festgestellt. Jedes Sterilisationsmittel wurde mindenstens 5 Jahre lang geprüft.
(§2) Die Entwicklung der Perioden der Organogenese wird zytologisch überwacht. Die Behandlung von Pflanzen mit dem Sterilisationsmittel erfolgt am Anfang der fünften Periode der Organogenese nach Kupermann.
(§3) Mit dem Ährenschieben verwirklicht man die Isolierung von Hauptähren und anderen Stockwerken in Pergamentbeuteln. Bei Weizen und Tritikale werden Einzelisolatoren benutzt. Bei Roggen schließt man je Ähre 5 bis 7 verschiedene nebeneinander befindliche Pflanzen unter einen gemeinsamen Isolator ein. Bei Hierse wird jede Rispe getrennt isoliert. Der Sterilitätsprozentsatz (X) für Weizen, Roggen, Tritikale und Hirse wird nach der Formel [formula] ermittelt.
(§4) Die Kornzahl in nicht isolierten Ähren von Kontrollpflanzen wird bedingt für 100 % Ansetzen bei freier Bestäubung angenommen.
(§5) Um zuverlässige Angaben zu erhalten, verwendet man 20 bis 25 Isolatoren jeder Wiederholung für Weizen und Tritikale, 10 .bis 15 Isolatoren jeder Wiederholung für Roggen und Hirse.
Pflanzen des Winterweizens Sorte Mironowskaja 808 werden in der V. Periode der Organogenese durch Zerstäubung der 2%igen wäßrigen Emulsion der δ, δ' -Thiodivaleriansäure mit Hilfe einer Rückenspritze behandelt. Als Emulgiermittel wird 0,1 Masse% Kalziumalkylbenzalsulfonat mit 12 bis 14 Kohlenstoffatomen hinzugefügt. Als Adjuvans führt man in die Emulsion 0,01 Masse% Dimethylsulfoxid ein. Der Verbrauch an Präparat beträgt 20 kg/ha. Als Kontrolle dienen Pflanzen, behandelt mit einem Verdünner ohne Sterilisationsmittel. Die Ergebnisse sind in der Tabelle 1 angegeben. […] Periode der Organogenese erhalten.
Der Prozeß erfolgt analog zu dem im Beispiel 1 bescnriebenen. Als Sterilisationsmittel benutzt man 2%ige wäßrige Emulsion von Natriumsalz der δ, δ'-Thiodivaleriansäure, δ, δ' -Sulfonyldivaleriansäure, Natriumsalz der δ, δ' -Sulfonyldivaleriansäure, Kaliumsalz der δ, δ'--Sulfonyldivaleriansäure, Bis(di-n-butyläther) der δ, δ'--Thiodivaleriansäure, 4-Karboxybutyldezylsulfid bzw.
Pflanzen des Winterweizens Sorte Korall werden in der V. Periode der Organogenese (nach Kupermann) mit 2%iger wäßriger Emulsion von Bis(2-äthylhexyläther) der δ, δ' --Thiodivaleriansäure, 4-Karboxybutyldezylsulfid bzw. Bis(di--n-butyläther) der δ, δ' -Thiodivalerianqäure behandelt. Die Emulsion enthält 0,1 Masse% Kalziumalkylbenzolsulfonat mit 12 bis 14 Kohlenstoffatomen und 0,01 Masse% Dodezylsulfat. Der Verbrauch an Präparat beträgt 12 kg/ha. Als Kontrolle dienen Pflanzen, behandelt mit einem Verdünner ohne Sterilisationsmittel. Die Prüfergebnisse sind in der Tabelle 2 angegeben.
Pflanzen des Winterweizens Gordeiforme 12303 werden in der V. Periode der Organogenese (nach Kupermann) mit 2%iger wäßriger Emulsion von 4-Karboxybutyldezylsulfid, Bis(2-äthylhexyläther) der δ, δ' -Thiodivaleriansäure, δ, δ' -Sulfonyldivaleriansäure behandelt. Die Emulsion enthält als Emulgiermittel 0,1 Masse% Kalziumalkylbenzolsulfonat mit 12 bis 14 Kohlenstoffatomen und 0,01 Masse% Dimethylformamid. Der Verbrauch an Präparat beträgt 16 kg/ha. Als Kontrolle dienen Pflanzen, behandelt mit einem Verdünner ohne Sterilisationsmittel.

Sommerweizen = assay: Field test of gametocidal activity (sterilisation of anthers), spring wheat; type: in vivo; conditions: V. Periode der Organogenese
From the text: as §1, §2, §3, §4, §5
Pflanzen des Sommerweizens Sorte Moskowskaja 35 werden in der V. Periode der Organogenese (nach Kupermann) mit 1%iger wäßriger Emulsion von δ, δ' -Thiodivaleriansäure, Natriumsalz der δ, δ' -Thiodivaleriansäure, δ, δ'--Sulfonyldivaleriansäure, Natriumsalz der d, δ' -Sulfonyldivaleriansäure, Kaliumsalz der δ, δ' -Sulfornyldivaleriansäure, Bis (die-n-butyläther) der δ, δ' -Thiodivaleriansäure, 4-Karboxybutyldezylsulfid, Bis(2-äthylhexyläther) der δ, δ' -Thiodivaleriansäure behandelt. Die Emulsion enthält 0,1 Masse% Kalziumalkylbenzolsulfonat mit 12 bis 14 Kohlenstoffatomen und 0,01 Masse% Dimethylsulfoxid. Der Verbrauch an Präparat beträgt 6 kg/ha. Als Kontrolle dienen Pflanzen, behandelt mit einem Verdünner ohne Sterilisationsmittel. Die Prüfergebnisse sind in der Tabelle 4 angegeben. […] Periode der Organogenese erhalten.
(§6) Pflanzen des Sommerweizens Sorte Rodina werden in der V. Periode der Organogenese (nach Kupermann) mit l%iger wäßriger Emulsion von δ, δ' -Sulfornyldivaleriansäure, 4-Karboxybutyldezylsulfid, Bis(2-äthylhexyläther) der δ, δ' -Thiodivaleriansäure behandelt. Die Emulsion enthält 0,1 Masse% Kalziumalkylbenzolsulfonat mit 12 bis 14 Kohlenstoffatomen und 0,01 Masse% Tetrahydrofuran. Der Verbrauch an Präparat beträgt 6 kg/ha. Als Kontrolle dienen Pflanzen, behandelt mit einem Verdünner ohne Sterilisationsmittel. Die Prüfergebnisse sind in der Tabelle 5 angegeben. […] Periode der Organogenese erhalten.
Pflanzen des Sommerwizens Sorte Charkowskaja 9 werden in der V. Periode der Organogenese (nach Kupermann.) mit 1%iger waßriger Emulsion von Bis(di-n-butyläther) der δ, δ' -Thiodivaleriansäure, Bis(2-äthylhexyläther) der δ, δ' -Thiodivaleriansäure behandelt. Die Emulsion enthält 0,1 Masse% Kalziumalkylbenzolsulfonat mit 12 bis 14 Kohlenstoffatomen und 0,01 Masse% Äthylenglykol. Der Verbrauch an Präparat beträgt 8 kg/ha. Als Kontrolle dienen Pflanzen, behandelt mit einem Verdünner ohne Sterilisationsmittel. Die Prüfergebnisse sind in der Tabelle 6 angegeben. […] Periode der Organogenese erhalten.
as §6, with “Botanitscheskaja 4” for “Rodina”, “1%iger” for “l%iger”, “von Natriumsatz der” for “von”, “--Thiodivaleriansäure, Bis(di-n-butyläther) der δ, δ' -Thiodiväleriansäure,” for “-Sulfornyldivaleriansäure,”, “Dodezylsulfat.” for “Tetrahydrofuran.”, “7” for “5”

[1] = Sorte Moskowskaja 35, 1%ige wäßrige Emulsion, 6 kg/ha
[2] = Sorte Rodina, 1%ige wäßrige Emulsion, 6 kg/ha
[3] = Sorte Charkowskaja 9, 1%ige Emulsion, 8 kg/ha
[4] = Sorte Botanitscheskaja 4, 1%ige wäßrige Emulsion, 6 kg/ha

O=C([O-])CCCCSCCCCC(=O)[O-].[Na+].[Na+] [Beispiel 2, Natriumsalz der δ, δ'-Thiodivaleriansäure]
Anzahl von Körnern der Ähre bei freier Bestäubung (Winterweizen): 35,3
Anzahl von Körnern der Ähre im Isolator (Winterweizen): 0,3
Prozentsatz der Sterilität (Winterweizen): 99,3%
Prozentsatz des Ansetzens von Körnern bei freier Bestäubung (Winterweizen): 85,7%

O=C(O)CCCCS(=O)(=O)CCCCC(=O)O [Beispiel 3, δ, δ' -Sulfonyldivaleriansäure]
Anzahl von Körnern der Ähre bei freier Bestäubung (Winterweizen): 37,2
Anzahl von Körnern der Ähre im Isolator (Winterweizen): 0,0
Prozentsatz der Sterilität (Winterweizen): 100,0%
Prozentsatz des Ansetzens von Körnern bei freier Bestäubung (Winterweizen): 90,3%

O=C(O)CCCCSCCCCC(=O)O [Beispiel 15, δ, δ' -Thiodivaleriansäure]
Anzahl von Körnern der Ähre bei freier Bestäubung (Sommerweizen; [1]): 31,7
Anzahl von Körnern der Ähre im Isolator (Sommerweizen; [1]): 0,9
Prozentsatz der Sterilität (Sommerweizen; [1]): 97,0%
Prozentsatz des Ansetzens von Körnern bei freier Bestäubung (Sommerweizen; [1]): 98,3%

O=C([O-])CCCCSCCCCC(=O)[O-].[Na+].[Na+] [Beispiel 16, Natriumsalz der δ, δ' -Thiodivaleriansäure]
Anzahl von Körnern der Ähre bei freier Bestäubung (Sommerweizen; [1]): 30,8
Anzahl von Körnern der Ähre im Isolator (Sommerweizen; [1]): 0,9
Prozentsatz der Sterilität (Sommerweizen; [1]): 97,0%
Prozentsatz des Ansetzens von Körnern bei freier Bestäubung (Sommerweizen; [1]): 96,5%

O=C(O)CCCCS(=O)(=O)CCCCC(=O)O [Beispiel 17, δ, δ'--Sulfonyldivaleriansäure]
Anzahl von Körnern der Ähre bei freier Bestäubung (Sommerweizen; [1]): 26,7
Anzahl von Körnern der Ähre im Isolator (Sommerweizen; [1]): 0,0
Prozentsatz der Sterilität (Sommerweizen; [1]): 100,0%
Prozentsatz des Ansetzens von Körnern bei freier Bestäubung (Sommerweizen; [1]): 83,6%

O=C([O-])CCCCS(=O)(=O)CCCCC(=O)[O-].[Na+].[Na+] [Beispiel 18, Natriumsalz der d, δ' -Sulfonyldivaleriansäure]
Anzahl von Körnern der Ähre bei freier Bestäubung (Sommerweizen; [1]): 31,1
Anzahl von Körnern der Ähre im Isolator (Sommerweizen; [1]): 0,3
Prozentsatz der Sterilität (Sommerweizen; [1]): 99,0%
Prozentsatz des Ansetzens von Körnern bei freier Bestäubung (Sommerweizen; [1]): 97,4%

O=C([O-])CCCCS(=O)(=O)CCCCC(=O)[O-].[K+].[K+] [Beispiel 19, Kaliumsalz der δ, δ' -Sulfornyldivaleriansäure]
Anzahl von Körnern der Ähre bei freier Bestäubung (Sommerweizen; [1]): 30,5
Anzahl von Körnern der Ähre im Isolator (Sommerweizen; [1]): 0,3
Prozentsatz der Sterilität (Sommerweizen; [1]): 99,0%
Prozentsatz des Ansetzens von Körnern bei freier Bestäubung (Sommerweizen; [1]): 95,6%

CCCCCCCCCCSCCCCC(=O)O [Beispiel 21, 4-Karboxybutyldezylsulfid]
Anzahl von Körnern der Ähre bei freier Bestäubung (Sommerweizen; [1]): 26,9
Anzahl von Körnern der Ähre im Isolator (Sommerweizen; [1]): 0,0
Prozentsatz der Sterilität (Sommerweizen; [1]): 100,0%
Prozentsatz des Ansetzens von Körnern bei freier Bestäubung (Sommerweizen; [1]): 84,3%

CCCCC(CC)COC(=O)CCCCSCCCCC(=O)OCC(CC)CCCC (stereo not shown) [Beispiel 22, Bis(2-äthylhexyläther) der δ, δ' -Thiodivaleriansäure]
Anzahl von Körnern der Ähre bei freier Bestäubung (Sommerweizen; [1]): 25,7
Anzahl von Körnern der Ähre im Isolator (Sommerweizen; [1]): 0,0
Prozentsatz der Sterilität (Sommerweizen; [1]): 100,0%
Prozentsatz des Ansetzens von Körnern bei freier Bestäubung (Sommerweizen; [1]): 80,6%

O=C(O)CCCCS(=O)(=O)CCCCC(=O)O [Beispiel 23, δ, δ' -Sulfornyldivaleriansäure]
Anzahl von Körnern der Ähre bei freier Bestäubung (Sommerweizen; [2]): 36,1
Anzahl von Körnern der Ähre im Isolator (Sommerweizen; [2]): 0,0
Prozentsatz der Sterilität (Sommerweizen; [2]): 100,0%
Prozentsatz des Ansetzens von Körnern bei freier Bestaubung (Sommerweizen; [2]): 96,3%

CCCCCCCCCCSCCCCC(=O)O [Beispiel 24, 4-Karboxybutyldezylsulfid]
Anzahl von Körnern der Ähre bei freier Bestäubung (Sommerweizen; [2]): 29,8
Anzahl von Körnern der Ähre im Isolator (Sommerweizen; [2]): 0,0
Prozentsatz der Sterilität (Sommerweizen; [2]): 100,0%
Prozentsatz des Ansetzens von Körnern bei freier Bestaubung (Sommerweizen; [2]): 79,5%

CCCCC(CC)COC(=O)CCCCSCCCCC(=O)OCC(CC)CCCC (stereo not shown) [Beispiel 25, Bis(2-äthylhexyläther) der δ, δ' -Thiodivaleriansäure]
Anzahl von Körnern der Ähre bei freier Bestäubung (Sommerweizen; [2]): 31,2
Anzahl von Körnern der Ähre im Isolator (Sommerweizen; [2]): 0,0
Prozentsatz der Sterilität (Sommerweizen; [2]): 100,0%
Prozentsatz des Ansetzens von Körnern bei freier Bestaubung (Sommerweizen; [2]): 83,2%

CCCCC(CC)COC(=O)CCCCSCCCCC(=O)OCC(CC)CCCC (stereo not shown) [Beispiel 27, Bis(2-äthylhexyläther) der δ, δ' -Thiodivaleriansäure]
Anzahl von Körnern der Ähre bei freier Bestäubung (Sommerweizen; [3]): 28,6
Anzahl von Körnern der Ähre im Isolator (Sommerweizen; [3]): 0,0
Prozentsatz der Sterilität (Sommerweizen; [3]): 100,0%
Prozentsatz des Ansetzens von Körnern bei freier Bestäubung (Sommerweizen; [3]): 88,9%

O=C([O-])CCCCSCCCCC(=O)[O-].[Na+].[Na+] [Beispiel 28, Natriumsatz der δ, δ' --Thiodivaleriansäure]
Anzahl von Körnern der Ähre bei freier Bestäubung (Sommerweizen; [4]): 36,2
Anzahl von Körnern der Ähre im Isolator (Sommerweizen; [4]): 0,3
Prozentsatz der Sterilität (Sommerweizen; [4]): 99,2%
Prozentsatz des Ansetzens von Körnern bei freier Bestäubung (Sommerweizen; [4]): 90,0%

CCCCCCCCCCSCCCCC(=O)O [Beispiel 30, 4-Karboxybutyldezylsulfid]
Anzahl von Körnern der Ähre bei freier Bestäubung (Sommerweizen; [4]): 32,8
Anzahl von Körnern der Ähre im Isolator (Sommerweizen; [4]): 0,0
Prozentsatz der Sterilität (Sommerweizen; [4]): 100,0%
Prozentsatz des Ansetzens von Körnern bei freier Bestäubung (Sommerweizen; [4]): 81,6%

CCCCC(CC)COC(=O)CCCCSCCCCC(=O)OCC(CC)CCCC (stereo not shown) [Beispiel 31, Bis(2-äthylhexyläther) der δ, δ' -Thiodivaleriansäure]
Anzahl von Körnern der Ähre bei freier Bestäubung (Sommerweizen; [4]): 33,4
Anzahl von Körnern der Ähre im Isolator (Sommerweizen; [4]): 0,0
Prozentsatz der Sterilität (Sommerweizen; [4]): 100,0%
Prozentsatz des Ansetzens von Körnern bei freier Bestäubung (Sommerweizen; [4]): 83,1%

Bis (die-n-butyläther) der δ, δ' -Thiodivaleriansäure [Beispiel 20]
Anzahl von Körnern der Ähre bei freier Bestäubung (Sommerweizen; [1]): 28,7
Anzahl von Körnern der Ähre im Isolator (Sommerweizen; [1]): 0,0
Prozentsatz der Sterilität (Sommerweizen; [1]): 100,0%
Prozentsatz des Ansetzens von Körnern bei freier Bestäubung (Sommerweizen; [1]): 89,9%

Bis(di-n-butyläther) der δ, δ' -Thiodivaleriansäure [Beispiel 26]
Anzahl von Körnern der Ähre bei freier Bestäubung (Sommerweizen; [3]): 28,7
Anzahl von Körnern der Ähre im Isolator (Sommerweizen; [3]): 0,0
Prozentsatz der Sterilität (Sommerweizen; [3]): 100,0%
Prozentsatz des Ansetzens von Körnern bei freier Bestäubung (Sommerweizen; [3]): 89,1%

Bis(di-n-butyläther) der δ, δ' -Thiodiväleriansäure [Beispiel 29]
Anzahl von Körnern der Ähre bei freier Bestäubung (Sommerweizen; [4]): 30,6
Anzahl von Körnern der Ähre im Isolator (Sommerweizen; [4]): 0,0
Prozentsatz der Sterilität (Sommerweizen; [4]): 100,0%
Prozentsatz des Ansetzens von Körnern bei freier Bestäubung (Sommerweizen; [4]): 76,2%
